Ends that are not written are not given here.

Five substances from patent US8673313B2, “Cell penetrating peptides and its use fused to biomolecules with therapeutic action” (priority 2007, dated 2014) can be followed below.

In assay [1] the test system is murine splenocytes. Kind of assay: Internalization of the analogues L-2 and L-20 to murine splenocytes (confocal microscopy). The format is cell-based, mice C57BL/6. The conditions noted are these: 0.8 mg biotinylated peptide (278-280 μM), 37° C., 10 min to 18 h, FIG. 2. The procedure: For the splenocytes isolation, the mice C57BL/6 were sacrificed by break-up of the cervical and the splenocytes were removed aseptically. The cellular suspensions of the animals by each group met in pool and they were homogenized smoothly. The splenocytes were washed and the erythrocytes were lysed with a solution of NH4C10.83%. After washing, the splenocytes are divided en different tubes with 20×10^6 of cells in 10 mL of fresh medium RPMI 1640 supplemented with 7% de fetal bovine serum. Each preparation was incubated with 0.8 mg of the biotinylated peptides L-2 (278 μM) y L-20 (280 μM) in different times: 10 min, 30 min, 1 h and 18 h. The incubations were at 37° C. and 5% de CO2. The cells on sterile glass cover slips were fixed, permeabilized and treated with propidium Iodide for to stain the nucleus and with streptavidine-fluorescein for detection of peptides inside the cells.

The test system of assay [2] is cells with different histological origins (J774, CasKi, HeLa, TC-1, Hep2). Kind of assay: Internalization of CPP LALF or their analogues to cells with different histological origins (fluorescence microscopy). Format: cell-based. Particulars: 25 or 50 μM biotinylated peptide, 37° C., streptavidin-fluorescein, FIG. 1. The procedure: (§1) Different cellular lines were used in this realization (Table 1). Cells grown on sterile glass cover slips of 22 mm overnight at 37° C. and 5% of CO2 with RPMI 1640, 10% inactivated calf fetal serum and 2 mM de glutamine. Then, 25 or 50 μM de CPP LALF or their biotinylated analogues L-2 y L-20 added and incubated at 37° C. and 4° C. in different times (10 min, 20 min, 30 min, 1 h y 2 h). Wash briefly with PBS and fix cells by 4% paraformaldehide per 20 min at room temperature. Wash in three changes of PBS. The permeabilization of the cells was with 0.5% Tritón X-100 for 15 min a room temperature. Wash in three changes of PBS. The cells were incubating for 1 hour in 1% blocking SFB in PBS at room temperature. Wash in three changes of PBS. Incubate with 1:50000 in PBS streptavidin-fluorescein for 45 minutes in a dark chamber. Wash extensively with PBS. Mount cover slip with aqueous mounting medium. Examine using a fluorescence microscope with appropriate filters.
(§2) As a negative control were used not related biotinylated and cells without peptide.

Assay [3] concerns J774 cells. Kind of assay: Internalization of CPP LALF in J774 cells at 4° C. (fluorescence microscopy). The format is cell-based. Particulars: J774, 4° C., 10 min incubation, FIG. 1. How it is done: as §1, §2
For assay [4], the system named is J774 cells. Kind of assay: Fluorescence microscopy: internalization of the cargo protein GFP to the cell. The format is cell-based. Particulars: FIG. 6. The source says:
The protein produced in E. coli from the recombinant fusion LALF-GFP (GFP-English, green fluorescence protein) was used to verify that the CPP LALF or its analogues could internalize the cargo protein. The GFP (GenBank Accession #U55762) was obtained using the polymerase chain reaction from plasmid pEGFP-N1 of Clontech using oligonucleotides with SEQ ID N0. 11 and 12. Both oligonucleotides have restricted sites used for cloning (HindIII-sense and BamHI-antisense).
For the construction of recombinant fragment, synthetic LALF and GFP gene obtained by PCR were inserted with the T4 ligase in the vector pM238, similar as in the example III. The recombinant clone is identified with the SEQ ID N0. 13 and 14.
With the recombinant and purified LALF-GFP protein was performed an similar experiment to the example V, but in this case the cells J774 incubated with LALF-GFP, LALF biotinilade, GFP and PBS.

Assay [5] relates to J774 cells. Kind of assay: Fluorescence microscopy: internalization of the cargo protein E7 to the cell. The format is cell-based. The conditions noted are these: 1.66 μM protein, J774, 37° C., 30 min, 1 hour and 2 hours, FIG. 4. The procedure:
Cells J774 grown on sterile glass cover slips of 22 mm overnight at 37° C. and 5% of CO2 with RPMI 1640, 10% inactivated calf fetal serum and 2 mM de glutamine. Then, different glass cover slips incubated with 1.66 μM fusion protein LALF-E7, 1.66 μM of protein E7 and PBS (as negative control) a 37° C. per 30 min, 1 hour and 2 hours. CasKi cells (human cells expressing HPV 16) grown as positive control in the same experimental conditions.
After incubation the cells were washed briefly with PBS and fix cells by 4% paraformaldehide per 20 min at room temperature. Wash in three changes of PBS. The permeabilization of the cells was with 0.5% Tritón X-100 for 15 min a room temperature. Wash in three changes of PBS. Then, the cells were incubating for 1 hour in 1% blocking SFB in PBS at room temperature. Wash in three changes of PBS. Cells were incubated with goat IgG anti E7/HPV 16 polyclonal antibody (Santa Cruz) diluted in PBS 1:50. Wash extensively with PBS. Incubate with anti-goat-fluorescein IgG polyclonal antibody (Santa Cruz) diluted in PBS 1:50 for 45 minutes in a dark chamber. Wash extensively with PBS. Mount cover slip with aqueous mounting medium. Examine using a fluorescence microscope with appropriate filters.

For assay [6], the system named is J774 cells. Kind of assay: Western blot: internalization of the cargo protein E7 to the cell. Particulars: 25 μM protein, J774, 4 hours at 37° C., FIG. 5. The format is cell-based. How it is done:
The cells J774 grown overnight at 37° C. and 5% of CO2 with RPMI 1640, 10% inactivated calf fetal serum and 2 mM de glutamine. After that, the cell were aliquoted in tubes with 5×10^6 cells each and incubated with 25 μM of fusion protein LALF-E7, 25 μM of protein E7 and PBS during 4 hours at 37° C. The sedimentation of the cells was made by a centrifugation to 1000 rpm by 10 minutes. Wash pellet in three changes of PBS. Cells were ruptured in 100 μL of RIPA buffer (Promega) mixed in vortex per 10 second and 2 min in ice. The sedimentation of the broken cells was made by a centrifugation to 12000 rpm by 15 minutes. Protein concentration was determined to the cell extract and rum 10 μg of total protein in 15% polyacrilamide gel. Subsequently the gel was transferred to a nitrocellulose membrane. The membrane was incubated for 2 hours at room temperature with an IgG goat polyclonal antibody anti-E7 HPV 16 (Santa Cruz) diluted in PBS (1:100). Wash in three changes of PBS. Subsequently, the membrane was incubated for 45 minutes at room temperature and in a dark room with an anti-goat IgG peroxidase conjugate (Sigma) diluted in PBS (1:5000). Wash in three changes of PBS. Finally the ECL system from Amersham Pharmacia Biotech was used.

Consider “L-12: analogous peptide of LALF 32-51 with alanine substitution in the position 12 (SEQ ID N0. 4) (HYRIKPTFRRLAWKYKGKFW; Artificial Sequence Description Analogue L-12)”, for which the internalization into splenocytes result in assay [1] is listed as “similar”. Further, the internalization into cells result in assay [2] is on record as “similar”.

In the case of “L-20: analogous peptide of LALF 32-51 with alanine substitution in the position 20 (SEQ ID N0. 5) (HYRIKPTFRRLKWKYKGKFA; Artificial Sequence Description Analogue L-20)”, the internalization into splenocytes entry in assay [1] is “internalized in a short times of incubation (30 min)”. As for “LALF: peptide corresponding to the region 32-51 of LALF protein (SEQ ID N0. 1) (HYRIKPTFRRLKWKYKGKFW; Artificial Sequence Description Synthetic Gen CPP LALF)”, in assay [1], the internalization into splenocytes entry is on record as “similar”. The internalization into cells result was “internalized in different cell types and short incubation times (30 min)” in assay [2]; “internalized in the cells J774 with only 10 min of the incubation at 4 °C” in assay [3]. For “LALF-biotinilado: biotinylated CPP LALF peptide used as comparator in the GFP experiment (HYRIKPTFRRLKWKYKGKFW; also: biotinylated, site not given here; UniProt P07086 32-51, looked up, fragment)”, the “internalization of GFP (fluorescent cells)” value in assay [4] is on record as “fluorescent cells”. As for “E7: recombinant protein E7 of HPV 16, unfused comparator [reference compound]”, the “internalization of E7 (fluorescent cells, anti-E7 antibody)” value in assay [5] is given as “Negative results”. The “detection of protein in cell extract by anti-E7 antibody (Western blot)” value in assay [6] is reported as “not detected any recognition”.
